Tests used:
[1] = biological target: T1, M2 proton channel of the influenza A virus (Influenza A virus, UniProt P0DOF5, C19S/C50S); format: binding, influenza A virus (A/Udorn)
[2] = biological target: T1, M2 proton channel of the influenza A virus; format: binding, influenza A virus (A/Udorn); details: pH 7.5, 40 mM rimantadine, 0.75 mM M2(18-60) monomer, 300 mM DHPC, four NOESY spectra

CC(N)C12CC3CC(CC(C3)C1)C2 (stereo not drawn) [rimantadine]
affinity for the open state of the channel ([1]; pH 6): much lower affinity, if any, for the open state
effect of binding on channel conformation ([1]; pH 7): stabilizes the closed conformation
location of binding site from protein-rimantadine NOEs [2]: between adjacent helices at the C-terminal end of the TM domain near the Trp41 gate, on the membrane side of the channel

— US20110003393A1, “SYSTEMS AND METHODS FOR STUDYING INFLUENZA” (President and Fellows of Harvard College, priority 2007, published 2011)
